Results taken from publication PMC7667655, “Targeted Covalent Inhibition of Plasmodium FK506 Binding Protein 35” (ACS Medicinal Chemistry Letters, 2020).
≈ marks a conversion by molar mass, not a printed value. Entries after “also recorded” stand apart in the source; their conditions may differ.

Columns and labels:
nLuc-tagged FKBP12 = target: T1, nLuc-tagged FKBP12 (Homo sapiens, UniProt P62942); experiment: NanoBRET cellular target engagement, nLuc-FKBP12; assay type: cell-based
T1 construct: full length Plasmodium falciparum FKBP35 and human FKBP12 DNA were; expressed in transfected cells
T1 sequence (P62942 whole entry): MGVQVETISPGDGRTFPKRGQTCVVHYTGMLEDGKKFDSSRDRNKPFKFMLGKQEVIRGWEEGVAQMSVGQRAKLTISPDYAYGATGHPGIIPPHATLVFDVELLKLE

FKBP35 = target: T2, FKBP35 (Plasmodium falciparum, UniProt Q8I4V8); experiment: Time course of covalent modification by LC-MS; assay type: biochemical; details: for K, rate of FKBP35 consumption: 2250 nM inhibitor : 450 nM FKBP35, 23 °C, one phase decay fit; for K’, rate of covalent adduct formation: 2250 nM inhibitor : 450 nM FKBP35, exponential plateau fit
T2 construct: FKBP35 Q5 -A128; 6His-SUMO (N, cleaved yes); made in house; host or cells: E. coli BL21 DE3
T2 sequence (Q8I4V8 5-128): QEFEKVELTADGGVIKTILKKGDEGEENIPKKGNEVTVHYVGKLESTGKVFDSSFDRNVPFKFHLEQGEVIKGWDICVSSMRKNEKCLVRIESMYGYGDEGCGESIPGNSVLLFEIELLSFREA
Description: RT=5.2). B. Overlay of mass determinations from LC traces in (A). FBD35 only (black, m/z = […]
chromatogram corresponding to Figure 4c detecting the CAM -peptide […] at […]
m/z 855.8668. D. Mass spec chromatogram corresponding to Figure 4d detecting the CAM - […]
peptide […] at m/z 855.8670. E. Mass spec chromatogram corresponding to Figure 4e which was unable to detect the mass of the 1c-inclusion peptide. F. Mass spec chromatogram corresponding to Figure 4f detecting the 1c-inclusion peptide […]
Figure S2. Time course of covalent modification. In order to compare rates of covalent modification, compounds 1a-c, 2a, and 2c were incubated with FKBP35 in a 5:1 ratio (2250 nM inhibitor : 450 nM FKBP35) and FKBP35 consumption or modification determined by LC -MS. A.
The concentration of residual FKBP35 as a function of time. Data was fit to an exponential “one phase decay” model which was used to calculate the rate (K) and half -life (t1/2) of the reaction.
The loss of FKBP35 in the DMSO and 1b controls is likely due to adsorption onto the vial. B.
Concentration of covalent adduct as a function of time. Data was fit to an “exponential plateau” regression model, which was used to calculate the rate of formation (K’). Compound 1b, which […]
C. Tabulated rates calculated from the regressions in A and B. The rates of FKBP35 consumption correlate strongly with the rates of […]
(also on this page, place not known: -inclusion 1c 0 20 40 60 0 200 400 600 Time (hours) FKBP35 (nM) Consumption of FKBP35 1a 1b 1c 2a 2c DMSO 0 20 40 60 0 200 400 600 Time (hours) Covalent Adduct (nM) Formation of Covalent Adduct 1a 1b 1c 2a 2c A B) […]
(1 picture or pasted object on this page, not shown here)
Experiments were performed using 0.4 mg/mL concentration of wild -type or mutant protein (6 - 9 uM), with and without synthes ized compounds at 40 µM and 2% DMSO (V/V). The respective reference scans were run under identical DSC conditions and subtracted from each sample scan.
The program was run in a continuous acquisition mode from 25°C to 90°C at a rate of 120C/h The heat capacity curves and midpoint temperature (Tm) were analyzed using Origin 7.0 software.
Fluorescence Polarization
The fluorescent tracer SLFb-2PEG-TAMRA was diluted in DMSO to 100 nM (100x stock concentration). FKBP proteins were diluted in assay buffer (150 mM NaCl, 20 mM HEPES pH 7.5, 0.002% Triton X -100) to the indicated concentration. 100x DMSO tracer stock was added to the protein buffer solution to a 1X final concentration and 20 µL of the mixture was aliquoted into each well of a black 384 -well assay plate (No. 3820, Corning Life Sciences). The plate was briefly centrifuged to remove bubbles. Using a d300e digital dispenser (Tecan), competitive ligands (10 mM stock in DMSO) were aliquoted in triplicate in an 8 -point 3x dilution series (30 µM to 13.7 nM final concentra tion) and normalized to 2% total DMSO concentration. Following incubation at room temperature (RT) for one hour, fluorescence polarization was measured using an EnVision Multimode Plate Reader (PerkinElmer) with the TAMRA Dual -FP mirror and filter kit. […]
analyzed in GraphPad Prism 8 by fitting the data to the “One Site – Fit Ki” model to obtain the […]
Time Course Analysis of Covalent Inhibition
The following analy sis was performed as described on two different days, yielding similar results.
One replicate is shown for clarity. In 1.5 mL snap -top tubes, ligands 1a, 1b, 1c, 2a, and 2c were each diluted to 450 μM in DMSO to produce 200x stock solutions. In a separate 1.5 mL snap-top tube, isolated FKBP35 protein was diluted to 90 μM in the reaction buffer (150 mM NaCl, 20 mM HEPES pH = 7.5) to produce a 200x stock solution. In 2 mL glass mass spec vials, 5 μL of each 200x ligand solution was diluted in 990 μL reaction buffer. Immediately prior to injection of each t=0 time point, 5 μL of the 200x protein solution was added to the mass spec vial and mixed. Samples were analyzed using the Waters BioAccord LC-ToF (composed of an ACQUITY I -Class UPLC and […]

PBS solubility = details: pH 7.4
FKBP12 = target: T3, FKBP12 (Homo sapiens, UniProt P62942); experiment: Differential scanning calorimetry, FKBP12; assay type: binding; details: compound 40 µM
T3 construct: 6His-SUMO (N, cleaved yes); made in house; host or cells: E. coli (identical protocol to FBD35, BL21 DE3)
T3 sequence (P62942 whole entry): as the sequence (P62942 whole entry) above

[1] = target: T4, nLuc-tagged full length PfFKBP35 (Plasmodium falciparum, UniProt Q8I4V8); experiment: NanoBRET cellular target engagement, nLuc-FKBP35; assay type: cell-based
T4 construct: nanoluciferase-tagged (nLuc) full length PfFKBP35 or nLuc-tagged FKBP12; expressed in transfected cells
T4 sequence (Q8I4V8 whole entry): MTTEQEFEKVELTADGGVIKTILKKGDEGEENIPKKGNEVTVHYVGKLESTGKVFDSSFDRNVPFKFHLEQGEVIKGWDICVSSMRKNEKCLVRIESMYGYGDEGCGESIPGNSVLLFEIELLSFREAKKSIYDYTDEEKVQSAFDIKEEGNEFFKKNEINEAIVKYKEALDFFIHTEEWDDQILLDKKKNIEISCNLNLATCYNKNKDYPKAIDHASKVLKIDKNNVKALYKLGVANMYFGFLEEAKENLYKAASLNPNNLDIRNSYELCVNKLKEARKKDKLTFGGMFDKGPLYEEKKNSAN

[2] = target: T5, FBD35 (PfFKBP35 binding domain) (Plasmodium falciparum, UniProt Q8I4V8); experiment: Differential scanning calorimetry, FBD35; details: read-out: FBD35 ΔTM
T5 construct: FKBP35 Q5 -A128; 6His-SUMO (N, cleaved yes); made in house; host or cells: E. coli BL21 DE3
T5 sequence (Q8I4V8 5-128): as the sequence (Q8I4V8 5-128) above

Structure (SMILES)	IC50 (nLuc-tagged FKBP12) [nM]	K, rate of FKBP35 consumption (FKBP35) [h⁻¹]	K’, rate of covalent adduct formation (FKBP35) [h⁻¹]	solubility (PBS solubility) [µM]	ΔTm at 40 µM (FKBP12) [°C]	IC50 [1] [nM]	ΔTm at 40 µM [2] [°C]	covalent adduct formation (in words) (FKBP35; LC-MS time course)
C=CC(=O)Nc1cccc([C@@H](CCc2ccc(OC)c(OC)c2)OC(=O)[C@@H]2CCCCN2C(=O)C(=O)C(C)(C)CC)c1 [1a]	481	0.0724	0.05948	0.31 (≈ 0.179 µg/mL)	5.6	1230	13.4	–
C=CC(=O)OCC(C)(C)C(=O)C(=O)N1CCCC[C@H]1C(=O)O[C@H](CCc1ccc(OC)c(OC)c1)c1ccccc1 [2c]	601	0.8871	0.9298	< 0.1	5.2	854	14.5	–
CCC(=O)Nc1cccc([C@@H](CCc2ccc(OC)c(OC)c2)OC(=O)[C@@H]2CCCCN2C(=O)C(=O)C(C)(C)CC)c1 [1b]	313	–	–	–	6.8	876	2.8	no binding; also recorded: does not form any adduct
C=CC(=O)Nc1ccccc1[C@@H](CCc1ccc(OC)c(OC)c1)OC(=O)[C@@H]1CCCCN1C(=O)C(=O)C(C)(C)CC [1c]	–	0.1132	0.1128	3.5 (≈ 2.03 µg/mL)	3.2	–	9.6	–
